pIC50: −log10 of the molar value.
Tested on: Caco-2 cells
Assay: Counter-screen on Caco-2 cells, ATP level by luminescence (ATPlite), 48 h incubation
Format: cell-based, human
Details: Homo sapiens, Caco-2, 48 h, atmospheric O2, 5% CO2, 48 h, 37 °C
Method: Trophozoites of G. intestinalis strain WB clone C6 (ATCC No. 50803TM) were cultured axenically at 37^∘C in 25-cm^2 flasks containing Diamond’s TYI-S-33 medium supplemented with 10% bovine calf serum, 1 mg/mL bovine bile, 0.1 g/L streptomycin and 100 U/mL penicillin. […] Human epithelial colorectal adenocarcinoma (Caco-2) cells were grown in 25-cm^2 flasks in EMEM supplemented with 1% (v/v) non-essential amino acids, 2 mM glutamine, 5% (v/v) fetal bovine serum, 0.1 g/L streptomycin, and 100 U/mL penicillin.
Cells were detached with 0.5% trypsin-EDTA and seeded in sterile 96-well white clear-bottom plates at the same density of Giardia trophozoites and at increasing concentration of the compound to be tested, as described above. The assays were carried out exactly as reported for the Giardia trophozoites, except that the plates were incubated (still at 37^∘C) at atmospheric O2 level, 5% CO2, and 95% humidity. Each drug concentration was tested in at least seven replicates. MTZ was used as an internal […] control in the assay. Following 48 h incubation with each compound, according to the manufacturer instructions, 100 μL of the ATPlite^TM luminescence assay system (Perkin Elmer) was added to each well for one-step lysis and ATP level detection by luminescence.
Luminometric data were calibrated using ATP standard curves and normalized to the ATP level measured in control DMSO-treated cells (taken as 100%). The measured ATP level percentage was plotted as a function of the compound concentration and the half-maximal inhibitory concentration (IC50) was obtained by fitting the resulting titration profile to the Hill equation ([Goutelle et al., 2008]). The selectivity index (SI) of the compounds was then calculated as the ratio between the IC50 value measured on human cells over the value determined on Giardia trophozoites (SI = IC50,Caco-2/IC50,Giardia).
Selectivity of the newly synthesized compounds toward Giardia was assessed by running a counter-screen on human epithelial Caco-2 cells. […] This allowed us to calculate the compounds SI, defined as the ratio between the IC50 value measured on human cells over the value determined on Giardia trophozoites.

Structure (SMILES) | pIC50
O=C(/C=C/c1cc2ccccc2n(Cc2cn(-c3ccccc3)nn2)c1=O)c1cccc(F)c1 [Compound 60] | ≤ 4.30
COc1ccc(C(=O)/C=C/c2cc3ccccc3n(Cc3cn(-c4ccc(Cl)cc4)nn3)c2=O)cc1 [Compound 58] | 4.71
O=C(/C=C/c1cc2ccccc2n(Cc2cn(-c3ccc(F)cc3)nn2)c1=O)c1ccc(Cl)cc1 [Compound 44] | 5.14
COc1ccc(-n2cc(Cn3c(=O)c(/C=C/C(=O)c4ccc(F)cc4)cc4ccccc43)nn2)cc1 [Compound 25] | ≤ 4.70
Cc1ccc(C(=O)/C=C/c2cc3ccccc3n(Cc3cn(-c4ccc(Cl)cc4)nn3)c2=O)cc1 [Compound 55] | 4.70
COc1ccc(C(=O)/C=C/c2cc3ccccc3n(Cc3cn(-c4ccccc4)nn3)c2=O)cc1 [Compound 67] | ≤ 4.00
O=C(/C=C/c1cc2ccccc2n(Cc2cn(-c3ccccc3)nn2)c1=O)c1ccc(Cl)cc1 [Compound 62] | 5.23
COc1ccccc1C(=O)/C=C/c1cc2ccccc2n(Cc2cn(-c3ccccc3)nn2)c1=O [Compound 65] | ≤ 4.40
Cc1ccc(C(=O)/C=C/c2cc3ccccc3n(Cc3cn(-c4ccc(C)cc4)nn3)c2=O)cc1 [Compound 37] | ≤ 4.30

Same assay, conditions: atmospheric O2, 5% CO2, 48 h, 37 °C

Structure (SMILES) | pIC50
COc1ccccc1C(=O)/C=C/c1cc2ccccc2n(Cc2cn(-c3ccccc3)nn2)c1=O [Compound 65] | ≤ 4.30

Tested on: not given
Assay: not given
Details: not given

Structure (SMILES) | melting point [°C]
O=C(/C=C/c1cc2ccccc2n(Cc2cn(-c3ccccc3)nn2)c1=O)c1cccc(F)c1 [Compound 60] | 180 to 182
COc1ccc(C(=O)/C=C/c2cc3ccccc3n(Cc3cn(-c4ccc(Cl)cc4)nn3)c2=O)cc1 [Compound 58] | 210 to 212
O=C(/C=C/c1cc2ccccc2n(Cc2cn(-c3ccc(F)cc3)nn2)c1=O)c1ccc(Cl)cc1 [Compound 44] | 190 to 192
COc1ccc(-n2cc(Cn3c(=O)c(/C=C/C(=O)c4ccc(F)cc4)cc4ccccc43)nn2)cc1 [Compound 25] | 211 to 213
Cc1ccc(C(=O)/C=C/c2cc3ccccc3n(Cc3cn(-c4ccc(Cl)cc4)nn3)c2=O)cc1 [Compound 55] | 217 to 219
COc1ccc(C(=O)/C=C/c2cc3ccccc3n(Cc3cn(-c4ccccc4)nn3)c2=O)cc1 [Compound 67] | 215 to 217
O=C(/C=C/c1cc2ccccc2n(Cc2cn(-c3ccccc3)nn2)c1=O)c1ccc(Cl)cc1 [Compound 62] | 216 to 218
COc1ccccc1C(=O)/C=C/c1cc2ccccc2n(Cc2cn(-c3ccccc3)nn2)c1=O [Compound 65] | 210 to 212
Cc1ccc(C(=O)/C=C/c2cc3ccccc3n(Cc3cn(-c4ccc(C)cc4)nn3)c2=O)cc1 [Compound 37] | 202 to 204

Tested on: Giardia intestinalis trophozoites
Assay: Drug susceptibility of Giardia trophozoites, ATP level by luminescence (BacTiter-Glo), 48 h incubation, anaerobic or microaerobic
Format: cell-based, Giardia intestinalis strain WB clone C6
Details: Giardia duodenalis, 48 h, anaerobic conditions (Anaerocult A), 48 h, 37 °C, ATP level; read-out: Giardia (anaerobiosis) IC50
Method: Trophozoites of G. intestinalis strain WB clone C6 (ATCC No. 50803TM) were cultured axenically at 37^∘C in 25-cm^2 flasks containing Diamond's TYI-S-33 medium supplemented with 10% bovine calf serum, 1 mg/mL bovine bile, 0.1 g/L streptomycin and 100 U/mL penicillin. Typically, 50 ml medium was inoculated with 25 × 10^6 cells and after 2 days cells were harvested by chilling the flasks on ice for 30 min for drug susceptibility assays. […] The assays were performed following the procedure described in [Bahadur et al. (2014)], using sterile 96-well white clear-bottom plates. […] Each drug concentration was tested in at least six replicates. MTZ was used as an internal positive control in the assay. The microtiter plates were then incubated at 37^∘C under anaerobic or microaerobic conditions, ensured by the Anaerocult® A or the Anaerocult® […] (Merck), respectively. […] Following 48 h incubation with the compound to be tested, 100 μL of the BacTiter-Glo^TM Microbial Cell Viability Assay System reagent (Promega) was added to each well for one-step lysis and ATP level detection. Plates were then incubated at room temperature for 15 min and ATP levels finally detected by luminescence on a plate reader (Wallac Victor3 1420 Multilabel Counter, PerkinElmer). Luminometric data were calibrated using ATP standard curves and normalized to the ATP level measured in control DMSO-treated cells (taken as 100%). The measured ATP level percentage was plotted as a function of the compound concentration and the half-maximal inhibitory concentration (IC50) was obtained by fitting the resulting titration profile to the Hill equation ([Goutelle et al., 2008]). The selectivity index (SI) of the compounds was then calculated as the ratio between the IC50 value measured on human cells over the value determined on Giardia trophozoites (SI = IC50,Caco-2/IC50,Giardia). The antigiardial activity of the novel compounds 23-67 was tested under both anaerobic and microaerobic conditions. According to ([Dunn et al., 2010]; [Bahadur et al., 2014]), susceptibility of Giardia trophozoites to increasing concentrations of each compound was assessed based on ATP level determination by luminescence. Dose-response curves for each compound were obtained after 48 h-incubation and compared to the data collected under identical conditions with MTZ, the drug of choice for treatment of giardiasis. […] Typical dose-response curves are shown in Figure 2, whereas the IC50 values measured for the synthetic compounds and MTZ under anaerobic and microaerobic conditions are reported in Table 1. […] Under anaerobic conditions, 18 out of the 45 synthetic compounds were as effective as MTZ or more under identical conditions (see Table 1).

Structure (SMILES) | pIC50
O=C(/C=C/c1cc2ccccc2n(Cc2cn(-c3ccccc3)nn2)c1=O)c1cccc(F)c1 [Compound 60] | 5.46
COc1ccc(C(=O)/C=C/c2cc3ccccc3n(Cc3cn(-c4ccc(Cl)cc4)nn3)c2=O)cc1 [Compound 58] | ≤ 4.00
O=C(/C=C/c1cc2ccccc2n(Cc2cn(-c3ccc(F)cc3)nn2)c1=O)c1ccc(Cl)cc1 [Compound 44] | 5.82
COc1ccc(-n2cc(Cn3c(=O)c(/C=C/C(=O)c4ccc(F)cc4)cc4ccccc43)nn2)cc1 [Compound 25] | 5.41
Cc1ccc(C(=O)/C=C/c2cc3ccccc3n(Cc3cn(-c4ccc(Cl)cc4)nn3)c2=O)cc1 [Compound 55] | 5.06
COc1ccc(C(=O)/C=C/c2cc3ccccc3n(Cc3cn(-c4ccccc4)nn3)c2=O)cc1 [Compound 67] | 5.23
O=C(/C=C/c1cc2ccccc2n(Cc2cn(-c3ccccc3)nn2)c1=O)c1ccc(Cl)cc1 [Compound 62] | 5.68
COc1ccccc1C(=O)/C=C/c1cc2ccccc2n(Cc2cn(-c3ccccc3)nn2)c1=O [Compound 65] | 5.49 to 5.66
Cc1ccc(C(=O)/C=C/c2cc3ccccc3n(Cc3cn(-c4ccc(C)cc4)nn3)c2=O)cc1 [Compound 37] | 5.20

Same assay, conditions: Giardia duodenalis, 48 h, microaerobic conditions (~5% O2, Anaerocult C), 48 h, 37 °C, ATP level; read-out: Giardia (microaerobiosis) IC50

Structure (SMILES) | pIC50
O=C(/C=C/c1cc2ccccc2n(Cc2cn(-c3ccccc3)nn2)c1=O)c1cccc(F)c1 [Compound 60] | 6.15
COc1ccc(C(=O)/C=C/c2cc3ccccc3n(Cc3cn(-c4ccc(Cl)cc4)nn3)c2=O)cc1 [Compound 58] | ≤ 4.52
O=C(/C=C/c1cc2ccccc2n(Cc2cn(-c3ccc(F)cc3)nn2)c1=O)c1ccc(Cl)cc1 [Compound 44] | 6.00
COc1ccc(-n2cc(Cn3c(=O)c(/C=C/C(=O)c4ccc(F)cc4)cc4ccccc43)nn2)cc1 [Compound 25] | 5.89
Cc1ccc(C(=O)/C=C/c2cc3ccccc3n(Cc3cn(-c4ccc(Cl)cc4)nn3)c2=O)cc1 [Compound 55] | 5.96
COc1ccc(C(=O)/C=C/c2cc3ccccc3n(Cc3cn(-c4ccccc4)nn3)c2=O)cc1 [Compound 67] | 6.10
O=C(/C=C/c1cc2ccccc2n(Cc2cn(-c3ccccc3)nn2)c1=O)c1ccc(Cl)cc1 [Compound 62] | 6.15
COc1ccccc1C(=O)/C=C/c1cc2ccccc2n(Cc2cn(-c3ccccc3)nn2)c1=O [Compound 65] | 6.40
Cc1ccc(C(=O)/C=C/c2cc3ccccc3n(Cc3cn(-c4ccc(C)cc4)nn3)c2=O)cc1 [Compound 37] | 5.80

Same assay, conditions: anaerobic conditions (Anaerocult A), 48 h, 37 °C, ATP level; read-out: Giardia (anaerobiosis) IC50

Structure (SMILES) | pIC50
COc1ccccc1C(=O)/C=C/c1cc2ccccc2n(Cc2cn(-c3ccccc3)nn2)c1=O [Compound 65] | 5.80

Same assay, conditions: human (Caco-2 cells) versus Giardia intestinalis, Caco-2, SI = IC50,Caco-2/IC50,Giardia; Giardia under anaerobiosis; read-out: Selectivity (IC50,Caco/IC50,Giardia) Anaerobiosis

Structure (SMILES) | selectivity ratio at 48 h
O=C(/C=C/c1cc2ccccc2n(Cc2cn(-c3ccccc3)nn2)c1=O)c1cccc(F)c1 [Compound 60] | ≥ 14
COc1ccc(C(=O)/C=C/c2cc3ccccc3n(Cc3cn(-c4ccc(Cl)cc4)nn3)c2=O)cc1 [Compound 58] | ≤ 0.2
O=C(/C=C/c1cc2ccccc2n(Cc2cn(-c3ccc(F)cc3)nn2)c1=O)c1ccc(Cl)cc1 [Compound 44] | 4.8
COc1ccc(-n2cc(Cn3c(=O)c(/C=C/C(=O)c4ccc(F)cc4)cc4ccccc43)nn2)cc1 [Compound 25] | ≥ 5
Cc1ccc(C(=O)/C=C/c2cc3ccccc3n(Cc3cn(-c4ccc(Cl)cc4)nn3)c2=O)cc1 [Compound 55] | 2.3
COc1ccc(C(=O)/C=C/c2cc3ccccc3n(Cc3cn(-c4ccccc4)nn3)c2=O)cc1 [Compound 67] | ≥ 16
O=C(/C=C/c1cc2ccccc2n(Cc2cn(-c3ccccc3)nn2)c1=O)c1ccc(Cl)cc1 [Compound 62] | 2.8
Cc1ccc(C(=O)/C=C/c2cc3ccccc3n(Cc3cn(-c4ccc(C)cc4)nn3)c2=O)cc1 [Compound 37] | ≥ 7

Same assay, conditions: human (Caco-2 cells) versus Giardia intestinalis, Caco-2, SI = IC50,Caco-2/IC50,Giardia; Giardia under microaerobiosis; read-out: Selectivity (IC50,Caco/IC50,Giardia) Microaerobiosis

Structure (SMILES) | selectivity ratio at 48 h
O=C(/C=C/c1cc2ccccc2n(Cc2cn(-c3ccccc3)nn2)c1=O)c1cccc(F)c1 [Compound 60] | ≥ 71
COc1ccc(C(=O)/C=C/c2cc3ccccc3n(Cc3cn(-c4ccc(Cl)cc4)nn3)c2=O)cc1 [Compound 58] | ≤ 0.7
O=C(/C=C/c1cc2ccccc2n(Cc2cn(-c3ccc(F)cc3)nn2)c1=O)c1ccc(Cl)cc1 [Compound 44] | 7.2
COc1ccc(-n2cc(Cn3c(=O)c(/C=C/C(=O)c4ccc(F)cc4)cc4ccccc43)nn2)cc1 [Compound 25] | ≥ 15
Cc1ccc(C(=O)/C=C/c2cc3ccccc3n(Cc3cn(-c4ccc(Cl)cc4)nn3)c2=O)cc1 [Compound 55] | 18.2
COc1ccc(C(=O)/C=C/c2cc3ccccc3n(Cc3cn(-c4ccccc4)nn3)c2=O)cc1 [Compound 67] | ≥ 125
O=C(/C=C/c1cc2ccccc2n(Cc2cn(-c3ccccc3)nn2)c1=O)c1ccc(Cl)cc1 [Compound 62] | 8.4
Cc1ccc(C(=O)/C=C/c2cc3ccccc3n(Cc3cn(-c4ccc(C)cc4)nn3)c2=O)cc1 [Compound 37] | ≥ 31
